Earlier results as cited in patent publication US11707464B2, “Methods of treating heavy menstrual bleeding” (AbbVie Inc., priority 2013, dated 2023).

Test system: women with symptomatic uterine fibroids
Conditions: 185 women with HMB associated with uterine fibroids; through 6 months; cited from earlier work

In the case of `CCNC(=O)[C@@H]1CCCN1C(=O)[C@H](CCCN=C(N)N)NC(=O)[C@H](CC(C)C)NC(=O)[C@@H](Cc1c[nH]c2ccccc12)NC(=O)[C@H](Cc1ccc(O)cc1)NC(=O)[C@H](CO)NC(=O)[C@H](Cc1c[nH]c2ccccc12)NC(=O)[C@H](Cc1cnc[nH]1)NC(=O)[C@@H]1CCC(=O)N1` [deslorelin], the “efficacy (reduction in uterine bleeding and volume) when dosed with low-dose transdermal E2” value is listed as “maintained”.
